In patent publication US7625841B2, “Substituted thiene-3-ylsulphonylamino(thio)carbonyltriazolin(ethi)ones” (Bayer CropScience AG, priority 2001, dated 2009):

Assays:
Assay type in all cases: in vivo
[1] = test system: Setaria; assay: Pre-emergence test/greenhouse; settings: greenhouse, application rate 15 gai/ha, rated after three weeks, 0%=no effect, 100%=total destruction
Method: (§1) • Solvent: 5 parts by weight of acetone • Emulsifier: 1 part by weight of alkylaryl polyglycol ether
(§2) To produce a suitable preparation of active compound, 1 part by weight of active compound is mixed with the stated amount of solvent, the stated amount of emulsifier is added and the concetrate is diluted with water to the desired concentration.
(§3) Seeds of the test plants are sown in normal soil. After 24 hours, the soil is sprayed with the preparation of active compound such that the particular amount of active compound desired is applied per unit area. The concentration of active compound in the spray liquor is chosen such that the particular amount of active compound desired is applied in 1000 litres of water per hectare.
(§4) After three weeks, the degree of damage to the plants is rated in % damage in comparison to the development of the untreated control. The figures denote: • 0%=no effect (like untreated control) • 100%=total destruction

[2] = test system: Matricaria; assay: Pre-emergence test/greenhouse; settings: greenhouse, application rate 15 gai/ha, rated after three weeks, 0%=no effect, 100%=total destruction
Method: as §1, §2, §3, §4

[3] = test system: Avena fatua; assay: Pre-emergence test/greenhouse; settings: greenhouse, application rate 15 gai/ha, rated after three weeks, 0%=no effect, 100%=total destruction
Method: as §1, §2, §3, §4

[4] = test system: Chenopodium; assay: Pre-emergence test/greenhouse; settings: greenhouse, application rate 15 gai/ha, rated after three weeks, 0%=no effect, 100%=total destruction
Method: as §1, §2, §3, §4

[5] = test system: Lolium; assay: Pre-emergence test/greenhouse; settings: greenhouse, application rate 15 gai/ha, rated after three weeks, 0%=no effect, 100%=total destruction
Method: as §1, §2, §3, §4

[6] = test system: Galium; assay: Pre-emergence test/greenhouse; settings: greenhouse, application rate 15 gai/ha, rated after three weeks, 0%=no effect, 100%=total destruction
Method: as §1, §2, §3, §4

[7] = test system: maize; assay: Pre-emergence test/greenhouse; settings: greenhouse, application rate 15 gai/ha, rated after three weeks, 0%=no effect, 100%=total destruction
Method: as §1, §2, §3, §4

[8] = test system: Solanum; assay: Pre-emergence test/greenhouse; settings: greenhouse, application rate 15 gai/ha, rated after three weeks, 0%=no effect, 100%=total destruction
Method: as §1, §2, §3, §4

[9] = test system: soybeans; assay: Pre-emergence test/greenhouse; settings: greenhouse, application rate 15 gai/ha, rated after three weeks, 0%=no effect, 100%=total destruction
Method: as §1, §2, §3, §4

[10] = test system: Digitaria; assay: Pre-emergence test/greenhouse; settings: greenhouse, application rate 15 gai/ha, rated after three weeks, 0%=no effect, 100%=total destruction
Method: as §1, §2, §3, §4

[11] = test system: Amaranthus; assay: Pre-emergence test/greenhouse; settings: greenhouse, application rate 15 gai/ha, rated after three weeks, 0%=no effect, 100%=total destruction
Method: as §1, §2, §3, §4

[12] = test system: Stellaria; assay: Pre-emergence test/greenhouse; settings: greenhouse, application rate 15 gai/ha, rated after three weeks, 0%=no effect, 100%=total destruction
Method: as §1, §2, §3, §4

[13] = test system: Polygonum; assay: Pre-emergence test/greenhouse; settings: greenhouse, application rate 15 gai/ha, rated after three weeks, 0%=no effect, 100%=total destruction
Method: as §1, §2, §3, §4

[14] = test system: wheat; assay: Pre-emergence test/greenhouse; settings: greenhouse, application rate 15 gai/ha, rated after three weeks, 0%=no effect, 100%=total destruction
Method: as §1, §2, §3, §4

[15] = test system: Xanthium; assay: Pre-emergence test/greenhouse; settings: greenhouse, application rate 15 gai/ha, rated after three weeks, 0%=no effect, 100%=total destruction
Method: as §1, §2, §3, §4

[16] = test system: weeds; assay: Post-emergence test, summary for weeds
Method: as §1
(§5) To produce a suitable preparation of active compound, 1 part by weight of active compound is mixed with the stated amount of solvent, the stated amount of emulsifier is added and the concentrate is diluted with water to the desired concentration.
(§6) Test plants of a height of 5-15 cm are sprayed with the preparation of active compound such that the particular amounts of active compound desired are applied per unit area. The concentration of the spray liquor is chosen such that the particular amounts of active compound desired are applied in 1000 l of water/ha.
(§7) After three weeks, the degree of damage to the plants is rated in % damage in comparison to the development of the untreated control.
(§8) The figures denote: • 0%=no effect (like untreated control) • 100%=total destruction

[17] = test system: weeds; assay: Pre-emergence test, summary for weeds
Method: as §1, §2, §3, §4

[18] = test system: Alopecurus; assay: Pre-emergence test/greenhouse; settings: greenhouse, application rate 15 gai/ha, rated after three weeks, 0%=no effect, 100%=total destruction
Method: as §1, §2, §3, §4

[19] = test system: Bromus; assay: Pre-emergence test/greenhouse; settings: greenhouse, application rate 15 gai/ha, rated after three weeks, 0%=no effect, 100%=total destruction
Method: as §1, §2, §3, §4

[20] = test system: Setaria; assay: Post-emergence test/greenhouse; settings: greenhouse, application rate 15 gai/ha, rated after three weeks, 0%=no effect, 100%=total destruction
Method: as §1, §5, §6, §7, §8

[21] = test system: Avena fatua; assay: Post-emergence test/greenhouse; settings: greenhouse, application rate 15 gai/ha, rated after three weeks, 0%=no effect, 100%=total destruction
Method: as §1, §5, §6, §7, §8

[22] = test system: Lolium; assay: Post-emergence test/greenhouse; settings: greenhouse, application rate 15 gai/ha, rated after three weeks, 0%=no effect, 100%=total destruction
Method: as §1, §5, §6, §7, §8

[23] = test system: Echinochloa; assay: Post-emergence test/greenhouse; settings: greenhouse, application rate 15 gai/ha, rated after three weeks, 0%=no effect, 100%=total destruction
Method: as §1, §5, §6, §7, §8

[24] = test system: Digitaria; assay: Post-emergence test/greenhouse; settings: greenhouse, application rate 15 gai/ha, rated after three weeks, 0%=no effect, 100%=total destruction
Method: as §1, §5, §6, §7, §8

[25] = test system: Alopecurus; assay: Post-emergence test/greenhouse; settings: greenhouse, application rate 15 gai/ha, rated after three weeks, 0%=no effect, 100%=total destruction
Method: as §1, §5, §6, §7, §8

[26] = test system: Bromus; assay: Post-emergence test/greenhouse; settings: greenhouse, application rate 15 gai/ha, rated after three weeks, 0%=no effect, 100%=total destruction
Method: as §1, §5, §6, §7, §8

[27] = test system: crop plants such as, for example, maize, oilseed rape and wheat; assay: Post-emergence test, summary for crop plants
Method: as §1, §5, §6, §7, §8

[28] = test system: crop plants, such as, for example, maize, soyabean and wheat; assay: Pre-emergence test, summary for crop plants
Method: as §1, §2, §3, §4

| Compound | degree of damage to the plants, Setaria [1] | degree of damage to the plants, Chenopodium [4] | degree of damage to the plants, Solanum [8] | degree of damage to the plants, soybeans [9] | degree of damage to the plants, Amaranthus [11] | degree of damage to the plants, Polygonum [13] | activity against weeds compared with the known compounds (A) and (B) [16] | activity against weeds compared with the known compounds (A) to (G) [17] | degree of damage to the plants, Lolium [5] | degree of damage to the plants, maize [7] | degree of damage to the plants, Stellaria [12] | degree of damage to the plants, Alopecurus [18] | degree of damage to the plants, wheat [14] | degree of damage to the plants, Setaria [20] | degree of damage to the plants, Avena fatua [21] | degree of damage to the plants, Lolium [22] | degree of damage to the plants, Echinochloa [23] | degree of damage to the plants, Digitaria [24] | compatibility with crop plants compared with the known compounds (A) and (B) [27] | tolerance by crop plants [28] | other results |
| --- | --- | --- | --- | --- | --- | --- | --- | --- | --- | --- | --- | --- | --- | --- | --- | --- | --- | --- | --- | --- | --- |
| COC(=O)c1csc(C)c1S(=O)(=O)NC(=O)n1nc(SC)n(C)c1=O [(G), methyl 4-[[[(4,5-dihydro-4-methyl-3-methylthio-5-oxo-1H-1,2,4-triazol-1-yl)carbonyl]amino]sulfonyl]-5-methyl-3-thiophenecarboxylate, reference compound] | 70% | 50% | 80% | 50% | 40% | 70% | – | – | – | – | – | – | – | – | – | – | – | – | – | – | pest or weed control at 15 g/ha ([2]; Matricaria, 504 h, read-out: degree of damage to the plants, Matricaria): 70%; degree of damage to the plants, Avena fatua [3]: 50%; pest or weed control at 15 g/ha ([5]; Lolium, 504 h, read-out: degree of damage to the plants, Lolium): 60%; degree of damage to the plants, Galium [6]: 30%; plant injury at 15 g/ha ([7]; Zea mays, 504 h, read-out: degree of damage to the plants, maize): 0%; degree of damage to the plants, Digitaria [10]: 50%; pest or weed control at 15 g/ha ([12]; Stellaria, 504 h, read-out: degree of damage to the plants, Stellaria): 80%; plant injury at 15 g/ha ([14]; Triticum aestivum, 504 h, read-out: degree of damage to the plants, wheat): 0%; pest or weed control at 15 g/ha ([15]; Xanthium, 504 h, read-out: degree of damage to the plants, Xanthium): 40% |
| CCCc1nn(C(=O)NS(=O)(=O)c2c(C(=O)OC)csc2C)c(=O)n1C [Example 15] | – | – | 95% | – | – | 90% | considerably stronger activity against weeds | considerably stronger activity against weeds | 95% | 0% | 100% | 100% | 0% | 90% | 90% | 80% | 90% | 100% | substantially better compatibility with crop plants | tolerated well by crop plants | degree of damage to the plants, Xanthium [15]: 95%; degree of damage to the plants, Bromus [19]: 90%; degree of damage to the plants, Alopecurus [25]: 95%; degree of damage to the plants, Bromus [26]: 80% |
| CCOc1nn(C(=O)NS(=O)(=O)c2c(C(=O)OC)csc2C)c(=O)n1CC [Example 38] | 95% | 95% | 100% | 0% | 100% | – | – | considerably stronger activity against weeds | 80% | 0% | 100% | – | – | – | – | – | – | – | – | tolerated well by crop plants | – |
| CCOn1c(CC)nn(C(=O)NS(=O)(=O)c2c(C(=O)OC)csc2C)c1=O [Example 39] | 100% | – | 95% | – | 100% | – | considerably stronger activity against weeds | considerably stronger activity against weeds | 95% | – | 100% | – | 0% | 95% | 90% | 95% | 100% | 95% | substantially better compatibility with crop plants | tolerated well by crop plants | degree of damage to the plants, Digitaria [10]: 100%; degree of damage to the plants, Bromus [26]: 95% |
| COC(=O)c1csc(C)c1S(=O)(=O)NC(=O)n1nc(OCC(F)(F)F)n(C)c1=O [Example 41] | 95% | 100% | 100% | – | 100% | – | – | considerably stronger activity against weeds | – | 0% | 100% | 100% | 0% | – | – | – | – | – | – | tolerated well by crop plants | – |
| COC(=O)c1csc(C)c1S(=O)(=O)NC(=O)n1nc(OCC(F)(F)F)n(C2CC2)c1=O [Example 43] | 95% | – | – | – | 100% | 100% | – | considerably stronger activity against weeds | 95% | – | 100% | – | – | – | – | – | – | – | – | tolerated well by crop plants | degree of damage to the plants, Matricaria [2]: 100% |
| COCc1nn(C(=O)NS(=O)(=O)c2c(C(=O)OC)csc2C)c(=O)n1C1CC1 [Example 45] | 100% | – | – | – | 100% | 95% | considerably stronger activity against weeds | considerably stronger activity against weeds | 100% | – | 100% | – | – | 90% | 90% | 95% | 100% | 100% | substantially better compatibility with crop plants | tolerated well by crop plants | degree of damage to the plants, Matricaria [2]: 100%; degree of damage to the plants, Avena fatua [3]: 95%; degree of damage to the plants, Bromus [26]: 90% |
| COC(=O)c1csc(C)c1S(=O)(=O)NC(=O)n1nc(C)n(C2CC2)c1=O [Example 46] | – | – | – | 0% | – | – | considerably stronger activity against weeds | considerably stronger activity against weeds | 90% | 0% | 100% | 95% | 50% | – | 80% | 95% | – | 90% | substantially better compatibility with crop plants | tolerated well by crop plants | degree of damage to the plants, Matricaria [2]: 100%; degree of damage to the plants, Alopecurus [25]: 80% |
